The results in this text go back to patent publication US20150056166A1, “FLAVONE DERIVATIVES AND THEIR USE” (Twincore GmbH, priority 2012, published 2015).

In one test the test system is JcR-2a virus. As to the kind of experiment: microbe, parasite or virus in culture. It counts as cell-based, HCV. The protocol:
Combined effects of CsA on BJ486K and vice versa were analysed by inoculation of Huh7-Lunet/CD81 cells with JcR-2a virus in the presence of given drugs and determination of luciferase activity 72 h later. Mean values of three independent experiments each conducted in triplicates including the standard deviations are given. Data are normalized for values determined in mock treated controls.
Huh7-Lunet/CD81 cells were infected with reporter virus particles essentially as described recently (Koutsoudakis et al., J. Virol. 2006; 80: 5308-5320). Briefly, for inoculation with firefly luciferase reporter virus particles (Luc-Jc1) and Renilla reporter viruses (JcR-2a (Reiss et al., Cell host & microbe 2011; 9: 32-45) and GT1-6, see plasmids below), Huh7-Lunet/CD81 cells were seeded at a density of 6×10 e4 cells per well of a 12-well plate or 6.6×10 e3 cells per well of a 96-well plate 24 h prior to inoculation. If not stated otherwise, the virus particles were pretreated with the inhibitors for 1 h at 37° C. Cells were inoculated for 4 h at 37° C., viral inoculum was replaced by fresh culture fluid and infection was quantified 48 h or 72 h after virus inoculation using luciferase assays. To this end, cells were washed once with PBS and in the case of the Luc-Jc1 infected cells, lysed directly on the plate with 350 μl of cold lysis buffer (0.1% Triton-X100, 25 mM glycylglycine, 15 mM MgSO4, 4 mM EGTA and 1 mM dithiothreitol, pH 7.8) and after addition of the luciferase solution (200 μM luciferin, 25 mM glycylglycine, pH8) measured for 20 s in a luminometer (Lumat LB9507, Berthold, Freiburg, Germany). Cells infected with the renilla reporter virus were lysed in 200 μl lysis buffer (Promega, Mannheim, Germany) and after addition of the luciferase substrate (1 μM of coelenterazin (P. J. K., Kleinblittersdorf, Germany) in PBS) measured for 1 s in a luminometer (Lumat LB9507, Berthold, Freiburg, Germany). The indicated IC50 values were determined by using Sigma Plot software (Systat Inc; San Jose; Calif.). […]

In another test the test system is Con1/C3-HCV. As to the kind of experiment: Infection of primary human hepatocytes, focus-formation assay. The conditions noted are these: Hepatitis C virus, genotype 1b, Hepatocyte, 72 h. It counts as cell-based. Here is the method:
FIG. 4: BJ486K is not affected by viral resistance towards a SR-BI-targeting compound, inhibits HCV of different genotypes and prevents infection of primary human hepatocytes Huh7-Lunet/CD81 cells were inoculated with Luc-Jc1 or Luc-Jc1/E2/G451R reporter viruses in the presence of increasing doses of (A) ITX 5061 or (B) BJ486K. Cells were lysed 72 h later. Luciferase activity was determined and is expressed relative to control infections conducted in the presence of DMSO. Mean values of four independent experiments each with quadruplicate measurements including the standard deviation are shown. […] Luciferase activity was determined 72 h later and is expressed relative to infections in the presence of DMSO. […] The inhibition of HCV infection was assessed by focus-formation assay and is expressed as % inhibition relative to DMSO-treated cells. […]
Normal-appearing liver tissue from patients seronegative for HCV, hepatitis B virus, and human immunodeficiency virus (HIV) was obtained from adult patients undergoing partial hepatectomy for the therapy of metastases. […] Three days later, infectivity titers in culture supernatants were determined by focus-formation assay as previously described by (Pene et al., Journal of Viral Hepatitis 2009;16:705-15). […]

For the compound `COc1ccc(-c2cc(=O)c3c(O)c(O)c(OC)cc3o2)cc1` [BJ486K, 5,6-Dihydroxy-7-methoxy-2-(4-methoxy-phenyl)-chromen-4-one], in the test with JcR-2a virus (100 ng/mL of CsA), the “decrease of the IC50 of BJ486K” value is reported as “ca. 3 fold”. For the same compound, the IC90 in the test with JcR-2a virus (Hepatitis C virus, Huh-7, 72 h) is 4.37 µM. The IC50 in the test with JcR-2a virus (Hepatitis C virus, Huh-7, read-out: IC50 of BJ486K) is around 0.4 µM; in the test with Con1/C3-HCV it was around 10 µM.
